One experiment has as its system INS1. Nature of the experiment: beta cell apoptosis inhibitors, cytokine rescue, dose response, luminescence, retest (AID 449756).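 Also: cell death triggered by IL-1 beta plus TNF-alpha plus IFN-gamma mixture; protective hits raise ATP signal compared with cytokine alone wells.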 The format is functional, cell-based. The conditions noted are these: Rattus norvegicus.
The next experiment concerns the target SUMO-activating enzyme (Homo sapiens, UniProt Q9UBT2). Nature of the experiment: SUMOylation inhibitor hit validation, confirmation, SUMOylation inhibitor project, biochemical, AlphaScreen (AID 2018). The experiment is classed as functional.
In a further experiment the target is T1, Streptokinase A (Streptococcus pyogenes serotype M1, UniProt P10520).
T1 sequence (P10520 whole entry): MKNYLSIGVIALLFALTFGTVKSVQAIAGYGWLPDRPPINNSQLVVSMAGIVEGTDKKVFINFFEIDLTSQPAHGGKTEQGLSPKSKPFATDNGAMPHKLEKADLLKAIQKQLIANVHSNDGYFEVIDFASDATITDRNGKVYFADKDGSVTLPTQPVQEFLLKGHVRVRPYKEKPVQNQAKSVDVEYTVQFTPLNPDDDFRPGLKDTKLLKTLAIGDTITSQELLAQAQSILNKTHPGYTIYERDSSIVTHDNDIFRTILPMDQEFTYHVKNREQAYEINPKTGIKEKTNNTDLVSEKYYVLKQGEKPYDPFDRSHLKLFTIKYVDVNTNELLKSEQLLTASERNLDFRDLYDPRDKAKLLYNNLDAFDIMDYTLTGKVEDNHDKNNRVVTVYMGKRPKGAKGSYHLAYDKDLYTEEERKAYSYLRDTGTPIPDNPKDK
As to the kind of experiment: S. pyogenes streptokinase expression inhibitors, potency, dose response, plasminogen activation absorbance, OD405 (AID 1914).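 Also: secreted streptokinase activity via plasminogen activation per viability signal from cell pellet.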 The format is functional, Streptococcus pyogenes M1 GAS.

Experiment [1] has as its system Streptococcus sp. 'group A'. As to the kind of experiment: growth inhibition of control SK(-) GAS strain, dose response, counter-screen for streptokinase expression inhibitor project, luminescence, kanamycin, BacTiterGlo, confirmation (AID 1900). The format is functional, organism-based.
Another experiment deals with Streptococcus. As to the kind of experiment: Group A Streptococcus viability loss, dose response, counter-screen for streptokinase expression inhibitor project, luminescence, BacTiterGlo (AID 1915).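 Also: potency for reduction of bacterial viability or growth.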 The experiment is classed as functional, organism-based. On the technique in general: A counterscreen serves to expose hits that act by an unwanted route or on another target.

In experiment [2] the target is E3 ubiquitin-protein ligase UHRF1 (Homo sapiens, UniProt Q96T88). Nature of the experiment: Counterscreen for inhibitors of 5-meCpG-binding domain protein 2 (MBD2): TRFRET-based biochemical high throughput dose response assay to identify inhibitors of binding of ubiquitin-like with PHD and ring finger domains 1 (UHRF1) to methylated oligonucleotide.
In a further experiment the target is T2, Protein RecA (Mycobacterium tuberculosis, UniProt P9WHJ3).
T2 sequence (P9WHJ3 whole entry): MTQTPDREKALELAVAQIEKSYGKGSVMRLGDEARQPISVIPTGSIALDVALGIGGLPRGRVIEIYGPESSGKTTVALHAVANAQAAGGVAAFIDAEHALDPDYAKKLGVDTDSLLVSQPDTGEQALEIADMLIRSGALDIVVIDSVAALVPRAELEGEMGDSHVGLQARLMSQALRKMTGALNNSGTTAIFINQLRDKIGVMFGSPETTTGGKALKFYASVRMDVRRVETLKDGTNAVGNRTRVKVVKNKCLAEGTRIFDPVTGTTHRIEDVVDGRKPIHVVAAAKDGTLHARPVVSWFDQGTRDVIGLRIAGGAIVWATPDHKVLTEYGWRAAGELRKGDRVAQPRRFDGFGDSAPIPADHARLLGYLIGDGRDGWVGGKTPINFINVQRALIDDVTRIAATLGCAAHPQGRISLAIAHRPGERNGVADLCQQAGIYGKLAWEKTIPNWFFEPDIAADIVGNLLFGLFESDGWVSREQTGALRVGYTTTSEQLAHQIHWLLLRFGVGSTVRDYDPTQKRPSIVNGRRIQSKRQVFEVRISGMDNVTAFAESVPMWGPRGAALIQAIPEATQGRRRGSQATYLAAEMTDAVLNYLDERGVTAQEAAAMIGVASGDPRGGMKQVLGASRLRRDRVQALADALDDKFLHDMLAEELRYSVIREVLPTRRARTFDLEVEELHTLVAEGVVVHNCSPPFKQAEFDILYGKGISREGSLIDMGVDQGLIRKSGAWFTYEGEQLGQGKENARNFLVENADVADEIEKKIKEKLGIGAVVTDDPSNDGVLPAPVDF
As to the kind of experiment: Fluorescence Cell-Free Homogeneous Dose Retest to Identify Inhibitors of RecA-Intein Splicing Activity. [Related pubchem assays (depositor defined):AID2097, AID2223, AID489010, AID492950]. The experiment is classed as functional.

Active and inactive are the calls of the source. Rule as the data show it, for most assays here: actives have a measured EC50 and inactives only a lower limit.

Chain of SUMO-activating enzyme (Q9UBE0 whole entry): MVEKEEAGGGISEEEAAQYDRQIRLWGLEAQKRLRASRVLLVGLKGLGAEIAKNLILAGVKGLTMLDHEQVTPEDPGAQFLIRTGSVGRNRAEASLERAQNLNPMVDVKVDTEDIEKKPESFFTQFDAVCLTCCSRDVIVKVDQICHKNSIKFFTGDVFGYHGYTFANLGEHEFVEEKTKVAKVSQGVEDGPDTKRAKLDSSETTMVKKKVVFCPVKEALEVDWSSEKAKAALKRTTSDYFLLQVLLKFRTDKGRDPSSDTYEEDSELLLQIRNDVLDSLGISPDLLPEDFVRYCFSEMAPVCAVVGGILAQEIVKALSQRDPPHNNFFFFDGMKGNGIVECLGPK
Chain of SUMO-activating enzyme (Q9UBT2 whole entry): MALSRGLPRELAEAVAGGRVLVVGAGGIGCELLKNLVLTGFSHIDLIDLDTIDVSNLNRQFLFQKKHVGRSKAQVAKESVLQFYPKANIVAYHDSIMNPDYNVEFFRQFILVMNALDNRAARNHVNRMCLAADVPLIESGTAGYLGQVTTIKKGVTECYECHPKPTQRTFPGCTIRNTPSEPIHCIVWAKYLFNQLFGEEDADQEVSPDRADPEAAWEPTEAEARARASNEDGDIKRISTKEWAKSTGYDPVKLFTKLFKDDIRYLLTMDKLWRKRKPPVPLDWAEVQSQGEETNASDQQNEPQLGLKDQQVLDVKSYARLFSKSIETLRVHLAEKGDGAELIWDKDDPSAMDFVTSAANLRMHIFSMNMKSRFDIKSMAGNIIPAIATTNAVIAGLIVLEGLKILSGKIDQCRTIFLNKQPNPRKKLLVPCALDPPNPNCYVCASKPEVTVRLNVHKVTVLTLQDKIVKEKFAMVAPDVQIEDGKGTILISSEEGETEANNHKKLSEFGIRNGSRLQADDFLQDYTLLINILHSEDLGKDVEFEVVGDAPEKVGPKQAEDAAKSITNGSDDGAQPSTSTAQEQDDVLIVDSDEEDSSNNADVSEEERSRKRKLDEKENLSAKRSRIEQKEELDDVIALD
Chain of E3 ubiquitin-protein ligase UHRF1 (Q96T88 whole entry, the tested form may be a part): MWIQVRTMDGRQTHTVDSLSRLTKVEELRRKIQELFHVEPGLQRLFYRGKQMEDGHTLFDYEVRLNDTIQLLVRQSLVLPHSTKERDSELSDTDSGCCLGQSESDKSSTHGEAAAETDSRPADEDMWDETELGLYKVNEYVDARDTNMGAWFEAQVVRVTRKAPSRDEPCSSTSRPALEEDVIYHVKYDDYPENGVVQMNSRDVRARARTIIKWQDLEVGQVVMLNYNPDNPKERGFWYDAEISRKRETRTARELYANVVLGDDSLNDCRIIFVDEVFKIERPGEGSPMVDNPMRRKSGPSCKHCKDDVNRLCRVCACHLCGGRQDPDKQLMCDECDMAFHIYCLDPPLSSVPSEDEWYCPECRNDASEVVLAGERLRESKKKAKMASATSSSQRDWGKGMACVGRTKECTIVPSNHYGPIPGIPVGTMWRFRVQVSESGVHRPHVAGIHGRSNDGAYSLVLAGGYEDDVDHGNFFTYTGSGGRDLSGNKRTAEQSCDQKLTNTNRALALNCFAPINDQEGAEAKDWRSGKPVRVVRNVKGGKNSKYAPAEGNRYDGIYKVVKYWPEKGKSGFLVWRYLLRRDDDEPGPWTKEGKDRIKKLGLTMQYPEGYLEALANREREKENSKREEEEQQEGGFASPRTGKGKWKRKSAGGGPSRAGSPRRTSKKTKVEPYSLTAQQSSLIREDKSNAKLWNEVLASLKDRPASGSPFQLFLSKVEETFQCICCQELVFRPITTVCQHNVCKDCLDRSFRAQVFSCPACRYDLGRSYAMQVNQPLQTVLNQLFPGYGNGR

As a reminder, the AC50 is the midpoint of the concentration-response curve, whichever way the signal moves. The term IC50 denotes the concentration that inhibits the measured activity by half. As usually defined, the EC50 is the concentration at which the effect is half-maximal. Consider `CCCCn1c(NS(=O)(=O)c2ccccc2)c(S(=O)(=O)c2ccc(C)cc2)c2nc3ccccc3nc21`, for which the AC50 with INS1 was 20.5 µM (active). Moreover, the results for the 50% inhibitory concentration (IC50) (on SUMO-activating enzyme; in experiment [2]) were 0.68 µM (active) and > 43.8 µM (inactive), respectively. Also, the 50% effective concentration (EC50) on Streptokinase A is 18.2 µM (active); in experiment [1], 3.56 µM (active); in the experiment on Streptococcus, 14.1 µM (active); on Protein RecA, 0.0801 µM (inconclusive).

The values above are taken from ChEMBL document CHEMBL1201862, “PubChem BioAssay data set” (2004).
